Measurements: patent US20230165980A1, “METHODS FOR RADIOLABELING PSMA BINDING LIGANDS AND THEIR KITS” (Novartis AG, priority 2020, published 2023)

Experiment: API assay stability of the freeze dried kit (external calibration curve)
Assay type: physicochemical
Conditions: final formulation kit
Procedure: Stability tests were performed on the freeze dried product containing the final formulation. […] Kits manufactured with the final formulation, indeed, were stored at different stability conditions (2-8° C.; 25° C. and 40° C.) and were tested at different time points for API-assay, Radiochemical Purity and Radiochemical Stability of the radiolabelled product. Radiochemical Purity and Stability were assessed only eluting IRE Generator which represented the most stressful condition in terms of Radioactive Concentration (Volumic Activity).

O=C(O)CCc1ccc(O)c(CN(CCN(CC(=O)O)Cc2cc(CCC(=O)NCCCCCC(=O)NCCCC[C@H](NC(=O)N[C@@H](CCC(=O)O)C(=O)O)C(=O)O)ccc2O)CC(=O)O)c1 [PSMA-11]
API quantitation, 1. injection (3 months at 2-8° C.): 28.87 µg | API quantitation, 2. injection (3 months at 2-8° C.): 29.21 µg | API quantitation, 3. injection (3 months at 2-8° C.): 28.44 µg | API quantitation, Average (3 months at 2-8° C.): 28.84 µg | API quantitation, 1. injection (3 months at 25° C.): 28.19 µg | API quantitation, 2. injection (3 months at 25° C.): 29.57 µg | API quantitation, 3. injection (3 months at 25° C.): 28.33 µg | API quantitation, Average (3 months at 25° C.): 28.70 µg | API quantitation, 1. injection (3 months at 40° C.): 28.17 µg | API quantitation, 2. injection (3 months at 40° C.): 28.05 µg | API quantitation, 3. injection (3 months at 40° C.): 28.06 µg | API quantitation, Average (3 months at 40° C.): 28.10 µg | API quantitation, 1. injection (6 months at 2-8° C.): 29.79 µg | API quantitation, 2. injection (6 months at 2-8° C.): 29.61 µg | API quantitation, 3. injection (6 months at 2-8° C.): 29.43 µg | API quantitation, Average (6 months at 2-8° C.): 29.61 µg | API quantitation, 1. injection (6 months at 25° C.): 29.35 µg | API quantitation, 2. injection (6 months at 25° C.): 29.31 µg | API quantitation, 3. injection (6 months at 25° C.): 29.06 µg | API quantitation, Average (6 months at 25° C.): 29.24 µg | API quantitation, 1. injection (6 months at 40° C.): 28.81 µg | API quantitation, 2. injection (6 months at 40° C.): 28.87 µg | API quantitation, 3. injection (6 months at 40° C.): 28.98 µg | API quantitation, Average (6 months at 40° C.): 28.89 µg | API quantitation, 1. injection (Release (Manufacturing date)): 28.31 µg | API quantitation, 2. injection (Release (Manufacturing date)): 28.76 µg | API quantitation, 3. injection (Release (Manufacturing date)): 27.40 µg | API quantitation, Average (Release (Manufacturing date)): 28.15 µg
